Activity and pKa data for one compound are collected here from ChEMBL document CHEMBL4725319, “Discovery of attenuation effect of orexin 1 receptor to aversion of nalfurafine: Synthesis and evaluation of D-nor-nalfurafine derivatives and analyses of the three active conformations of nalfurafine” (Bioorg Med Chem Lett, 2020).

The source made the active and inactive calls. The calls are words filed in the database; no cut-off is given here.

The subject of series [1] is Mus musculus. The experiment in a line: Analgesic activity in OX1R knock out mouse assessed as increase in wheel running activity at 40 ug/kg. The format is functional, organism-based. To be noted: dose 40.0 µg/kg.
Series [2] is described as follows: Toxicity in mouse assessed as conditioned place aversion at 10 to 40 microg/kg, sc. The note with it: in vivo, dose 10-40 µg/kg.
In series [3] the test system is Mus musculus. Briefly: Analgesic activity in OX1R knock out mouse assessed as increase in wheel running activity at 4 to 10 ug/kg. To be noted: dose microg/kg 4-10. The format is functional, organism-based.
Series [4] in a line: Toxicity in dual OX1/2R knock out mouse assessed as increase in conditioned place aversion at 10 to 40 microg/kg, sc. To be noted: in vivo, dose 10-40 µg/kg.
Series [5] can be described thus: Dissociation constant, pKa of compound. The series is classed as physicochemical.

As a reminder, the pKa is the pH at which an ionisable group is half protonated. With `CN(C(=O)/C=C/c1ccoc1)[C@@H]1CC[C@@]2(O)[C@H]3Cc4ccc(O)c5c4[C@@]2(CCN3CC2CC2)[C@H]1O5` [NALFURAFINE], in series [1], the result was Active. In addition, the Activity entry is on record as “Non-Toxic” in series [2] and “Toxic” in series [4]. Also, the result in series [3] was inactive. Also, the pKa in series [5] was 9.4.
